One assay deals with DYRK1A kinase (Homo sapiens, UniProt Q13627). The experiment in a line: DYRK1A kinase activity (Ser/Thr 18 peptide Z-lyte FRET assay).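 Note: kinase activity read as coumarin/fluorescein emission ratio after development step, with unphosphorylated and phosphorylated peptide forms setting 0% and 100% controls, values from dose-response curves.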 The class given is biochemical. The conditions noted are these: recombinant DYRK1A, 30 μM ATP, one hour at room temperature.
For assay [1], the system named is α-smooth muscle actin (aSMA) positive LL29 cells. The experiment in a line: Inhibition of the fibrotic process: αSMA staining in TGF-β1 treated LL29 fibroblasts from IPF patients. The conditions noted are these: Homo sapiens, Fibroblast; for EC50: 96 h; for inhibition at 10 µM: read-out: percentage in parentheses after EC50 >10.
For a further assay, the target named is GSK3β kinase (Homo sapiens, UniProt P49841). Kind of assay: GSK3β kinase activity (Ser/Thr 09 peptide Z-lyte FRET assay). Type of assay: biochemical. To be noted: recombinant kinase, 46 μM ATP, one hour at room temperature; read-out: EC50.
Chain of GSK3β kinase (P49841 whole entry): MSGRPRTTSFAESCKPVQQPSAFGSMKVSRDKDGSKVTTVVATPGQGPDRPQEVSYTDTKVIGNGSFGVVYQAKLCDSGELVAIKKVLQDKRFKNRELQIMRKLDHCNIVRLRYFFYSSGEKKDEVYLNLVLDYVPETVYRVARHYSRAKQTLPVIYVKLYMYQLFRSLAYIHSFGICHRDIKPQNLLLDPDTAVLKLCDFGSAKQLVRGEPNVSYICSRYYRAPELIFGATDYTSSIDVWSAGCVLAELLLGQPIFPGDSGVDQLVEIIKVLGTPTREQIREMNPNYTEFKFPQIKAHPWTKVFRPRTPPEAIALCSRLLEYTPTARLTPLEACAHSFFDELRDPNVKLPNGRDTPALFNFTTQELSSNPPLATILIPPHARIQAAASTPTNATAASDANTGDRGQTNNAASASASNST
The subject of another assay is IL-6. Kind of assay: IL-6 inhibition in LPS-stimulated human peripheral blood mononuclear cells (HTRF). The conditions noted are these: Homo sapiens, PBMC; for EC50: 22 h; for inhibition at 10 µM: read-out: percentage in parentheses after EC50 >10.
Assay [2] relates to Wnt-responsive Sp5-Luc reporter in SW480 colon carcinoma cells. The experiment in a line: Screening assay for Wnt activity (Sp5-Luc reporter gene assay). The conditions noted are these: Homo sapiens; for EC50: SW480; for inhibition at 10 µM: SW480, read-out: percent inhibition at 10 μM. (In general: In a reporter assay the amount or activity of a reporter protein is the signal.)

In assay [3] the test system is SW480 colon carcinoma cells. Kind of assay: Cell viability assay (CellTiter-Glo). The conditions noted are these: Homo sapiens; for EC50: SW480, 96 h; for inhibition at 10 µM: SW480, read-out: percent inhibition at 10 μM.

The text below walks through data of patent publication US10703748B2, “Diazanaphthalen-3-yl carboxamides and preparation and use thereof” (Samumed, LLC, priority 2017, dated 2020).

Consider `CN(C)CCNc1cc(C(=O)Nc2cc3cc(-c4cnn(C)c4)cnc3cn2)ccn1` [Compound 2884, 2-((2-(Dimethylamino)ethyl)amino)-N-(3-(1-methyl-1H-pyrazol-4-yl)-1,7-naphthyridin-6-yl)isonicotinamide], for which the EC50 (usually the concentration giving half of the maximal effect) is 0.049 µM on DYRK1A kinase; 5.24 µM in assay [1]; > 10 µM on GSK3β kinase; > 10 µM in the assay with IL-6; > 10 µM in assay [2]; 3.88 µM in assay [3]. In addition, the inhibition at 10 µM with IL-6 amounted to 9.4%; in assay [2] it was 44.1%.
Take `Cn1nnnc1-c1ccc2cnc(NC(=O)C3CCN(CCC(F)(F)F)CC3)nc2c1` [Compound 4574, N-(7-(1-Methyl-1H-tetrazol-5-yl)quinazolin-2-yl)-1-(3,3,3-trifluoropropyl) piperidine-4-carboxamide]: the EC50 was 1.41 µM on DYRK1A kinase; > 10 µM in assay [1]; 0.665 µM on GSK3β kinase; > 10 µM in the assay with IL-6; 3.87 µM in assay [2]; > 10 µM in assay [3]. In addition, the figures for the inhibition at 10 µM (in assay [1]; with IL-6; in assay [3]) were 32.8%, 5.7% and 20.2%, respectively.
On to `Cc1ncc(-c2ccc3cnc(NC(=O)C(C)N4CCCCC4)nc3c2)n1C` (centres unmarked) [Compound 4576, N-(7-(1,2-Dimethyl-1H-imidazol-5-yl)quinazolin-2-yl)-2-(piperidin-1-yl) propanamide], for which the EC50 at DYRK1A kinase was 0.675 µM; in assay [1], > 10 µM; at GSK3β kinase, 0.346 µM; in the assay with IL-6, > 10 µM; in assay [2], > 10 µM; in assay [3], > 10 µM. In addition, the inhibition at 10 µM turned out to be 38.3% in assay [1], 0% with IL-6, 35.3% in assay [2] and 22.1% in assay [3].
For `CC(C)Nc1cncc(-c2ccc3cnc(NC(=O)c4cn(C5CCNCC5)nn4)cc3n2)n1` [Compound 862, N-(2-(6-(isopropylamino)pyrazin-2-yl)-1,6-naphthyridin-7-yl)-1-(piperidin-4-yl)-1H-1,2,3-triazole-4-carboxamide], the EC50 at DYRK1A kinase was 0.203 µM; in assay [1], 5.03 µM; at GSK3β kinase, > 10 µM; in the assay with IL-6, > 10 µM; in assay [2], 3.97 µM; in assay [3] it was 4.38 µM. Moreover, in the assay with IL-6, the inhibition at 10 µM came out at 5.6%.
`CN1CCC(N(C)c2cc(C(=O)Nc3cc4cc(-c5cn(C)nn5)cnc4cn3)ccn2)CC1` [Compound 3102, 2-(Methyl(1-methylpiperidin-4-yl)amino)-N-(3-(1-methyl-1H-1,2,3-triazol-4-yl)-1,7-naphthyridin-6-yl)isonicotinamide]: the EC50 was 0.088 µM on DYRK1A kinase; > 10 µM in assay [1]; > 10 µM at GSK3β kinase; > 10 µM in the assay on IL-6; > 10 µM in assay [2]; 6.91 µM in assay [3]. Besides, the results for the inhibition at 10 µM (in assay [1]; in the assay on IL-6; in assay [2]) were 50%, 0% and 28.5%, respectively.
Consider `CNC(=O)c1ccc(C(=O)Nc2cc3cc(-c4cn(C)nn4)cnc3cn2)cn1` [Compound 3092, N^2-Methyl-N-(3-(1-methyl-1H-1,2,3-triazol-4-yl)-1,7-naphthyridin-6-yl) pyridine-2,5-dicarboxamide], for which the EC50 on DYRK1A kinase is 0.269 µM; in assay [1], > 10 µM; on GSK3β kinase it was > 10 µM; in the assay with IL-6, > 10 µM; in assay [2], 2.28 µM; in assay [3], > 10 µM. For the same compound, the figures for the inhibition at 10 µM (in assay [1]; in the assay on IL-6; in assay [3]) were 13.3%, 7.4% and 10.5%, respectively.
For the compound `Cn1cc(-c2ccc3cnc(NC(=O)[C@H]4CCCN4)nc3c2)cn1` [Compound 969, (R)—N-(7-(1-Methyl-1H-pyrazol-4-yl)quinazolin-2-yl)pyrrolidine-2-carboxamide], the EC50 (at DYRK1A kinase; in assay [1]; on GSK3β kinase; with IL-6; in assay [2]; in assay [3]) was > 10 µM throughout. For the same compound, the inhibition at 10 µM in assay [1] stood at 40.2%; in the assay on IL-6, 4.1%; in assay [2], 4.2%; in assay [3] it was 16.3%.
As to `Cc1nnc(-c2cnc3cnc(NC(=O)C4CCN(C(=O)c5ccccc5)CC4)cc3c2)s1` [Compound 3439, 1-Benzoyl-N-(3-(5-methyl-1,3,4-thiadiazol-2-yl)-1,7-naphthyridin-6-yl) piperidine-4-carboxamide], the EC50 on DYRK1A kinase is 0.1 µM; in assay [1], > 10 µM; at GSK3β kinase, 0.463 µM; with IL-6 it was > 10 µM; in assay [2] it was > 10 µM; in assay [3] it was > 10 µM. The inhibition at 10 µM worked out at 14.3% in assay [1], 12.7% in the assay with IL-6, 2.1% in assay [2] and 16.8% in assay [3].
For the compound `CNC(=O)c1ccc(C(=O)Nc2cc3cc(-c4cn(C)nn4)ncc3cn2)cn1` [Compound 3999, N^2-Methyl-N^5-(6-(1-methyl-1H-1,2,3-triazol-4-yl)-2,7-naphthyridin-3-yl) pyridine-2,5-dicarboxamide], the EC50 on DYRK1A kinase is 0.454 µM; in assay [1], > 10 µM; at GSK3β kinase, > 10 µM; in the assay on IL-6, > 10 µM; in assay [2], > 10 µM; in assay [3] it was > 10 µM. Moreover, the inhibition at 10 µM turned out to be 34.6% in assay [1], 4.1% in the assay with IL-6, 22% in assay [2] and 27.3% in assay [3].
Take `Cn1cc(-c2cnc3cnc(NC(=O)[C@H]4CCCN4)cc3c2)cn1` [Compound 2782, (R)—N-(3-(1-Methyl-1H-pyrazol-4-yl)-1,7-naphthyridin-6-yl)pyrrolidine-2-carboxamide]: the EC50 at DYRK1A kinase is 0.867 µM; in assay [1], 2.4 µM; on GSK3β kinase it was 2.45 µM; in the assay with IL-6, > 10 µM; in assay [2], > 10 µM; in assay [3], > 10 µM. Further, the results for the inhibition at 10 µM (in the assay with IL-6; in assay [2]; in assay [3]) were 4.3%, 2.2% and 18.8%, respectively.
In the case of `CO[C@H]1CC[C@H](C(=O)Nc2cc3cc(-c4nnc(C)s4)cnc3cn2)CC1` [Compound 3425, trans-4-Methoxy-N-(3-(5-methyl-1,3,4-thiadiazol-2-yl)-1,7-naphthyridin-6-yl)cyclohexane-1-carboxamide], the EC50 at DYRK1A kinase was 0.157 µM; in assay [1] it was > 10 µM; on GSK3β kinase, 2.29 µM; in the assay on IL-6, > 10 µM; in assay [2], > 10 µM; in assay [3], > 10 µM. Further, the inhibition at 10 µM in assay [1] turned out to be 19.3%; with IL-6, 9%; in assay [2], 0%; in assay [3] it was 29.9%.
On to `CN(C)Cc1ccc(C(=O)Nc2cc3cc(-c4cnn(C)c4)cnc3cn2)cc1` [Compound 2890, 4-((Dimethylamino)methyl)-N-(3-(1-methyl-1H-pyrazol-4-yl)-1,7-naphthyridin-6-yl)benzamide], for which the EC50 on DYRK1A kinase was 0.035 µM; in assay [1] it was > 10 µM; on GSK3β kinase it was > 10 µM; with IL-6, > 10 µM; in assay [2], 3.58 µM; in assay [3], 3.86 µM. For the same compound, the inhibition at 10 µM stood at 29.4% in assay [1] and 8.6% in the assay on IL-6.
On to `Cc1nnc(-c2cc3cc(NC(=O)CN4C5CCC4CC5)ncc3cn2)s1` [Compound 4353, 2-(7-Azabicyclo[2.2.1]heptan-7-yl)-N-(6-(5-methyl-1,3,4-thiadiazol-2-yl)-2,7-naphthyridin-3-yl)acetamide], for which the EC50 on DYRK1A kinase was 0.529 µM; in assay [1] it was > 10 µM; at GSK3β kinase, 2.45 µM; with IL-6, > 10 µM; in assay [2], > 10 µM; in assay [3], > 10 µM. Also, the inhibition at 10 µM in assay [1] amounted to 26.4%; in the assay on IL-6, 8.5%; in assay [2], 2.1%; in assay [3] it was 4.1%.
For the compound `CC(C)OCCC(=O)Nc1cc2cc(-c3cncn3C)cnc2cn1` [Compound 3136, 3-Isopropoxy-N-(3-(1-methyl-1H-imidazol-5-yl)-1,7-naphthyridin-6-yl) propanamide], the EC50 at DYRK1A kinase is 0.123 µM; in assay [1] it was 0.135 µM; on GSK3β kinase, 0.982 µM; with IL-6, > 10 µM; in assay [2], > 10 µM; in assay [3], > 10 µM. Further, the results for the inhibition at 10 µM (in the assay on IL-6; in assay [2]; in assay [3]) were 9.8%, 32% and 18.4%, respectively.
Turning to `Cn1cncc1-c1ccc2cnc(NC(=O)c3ccc(F)cc3)cc2n1` [Compound 448, 4-Fluoro-N-(2-(1-methyl-1H-imidazol-5-yl)-1,6-naphthyridin-7-yl)benzamide], the EC50 on DYRK1A kinase was > 10 µM; in assay [1], > 10 µM; on GSK3β kinase, > 10 µM; in the assay with IL-6 it was 5.13 µM; in assay [2] it was > 10 µM; in assay [3] it was > 10 µM. The inhibition at 10 µM in assay [1] came out at 23%; in assay [2], 2.8%; in assay [3], 16.2%.
